# Experimental data taken from PMC11770821, “Pharmacokinetics and pharmacodynamics of an innovative psychedelic N,N-dimethyltryptamine/harmine formulation in healthy participants: a randomized controlled trial” (International Journal of Neuropsychopharmacology, 2025).
# Legend:
# [1] = system: healthy male volunteers; test: Acute subjective drug effects, visual analog scales (VAS 0–100); type: in vivo, human; conditions: for subjective ratings of acute drug effects compared to placebo: 100 mg buccal harmine alone vs placebo
# Procedure: The detailed dosing scheme is depicted in Figure 1.
# The intensity of acute subjective effects was monitored with visual analog scales (VASs, range 0–100) on a touchscreen tablet throughout the study day at baseline (−90), 0, 30, 60, 90, 120, 180, 240, and 300 after the first DMT/placebo administration. At 360 minutes after the first DMT/placebo administration, a phenomenological interview was conducted with participants to further explore acute subjective drug effects. For PK-PD analyses, we included VAS for intensity, liking, disliking, and arousal in the present paper. Further analyses on a set of neurophysiological, psychometric, and phenomenological assessments will be presented in forthcoming manuscripts.
# [2] = system: healthy male volunteers; test: Undesired drug effects / adverse events questionnaire (y/n and VAS 0–100); type: in vivo, human
# Procedure: The participants were monitored with regard to AEs throughout the experiment by the study physician, including questionnaire-based assessments (VAS, 0-100 or y/n) of physical and mental discomfort, breathing difficulties, racing heartbeat, chest or abdominal pains, unpleasant body sensations/muscle pain, headache, nausea, vomiting, and fainting at baseline (−105), 0, 30, 60, 120, 240, and 300 minutes after DMT/placebo administration. Vital signs (systolic/diastolic blood pressure [DBP], heart rate, body temperature [BT]) were assessed using a semiautomatic blood pressure and oral temperature recording device throughout the study at baseline (−45), 0, 30, 120, 150, 210, and 270 minutes after the first DMT/placebo administration.
# [3] = 0 min after first intranasal DMT/placebo administration
# [4] = 60 min after first intranasal DMT/placebo administration
# [5] = 120 min after first intranasal DMT/placebo administration
# [6] = 180 min after first intranasal DMT/placebo administration
compound,measurement,setting,value
"COc1ccc2c(c1)[nH]c1c(C)nccc12 [Harmine, harmine]",subjective ratings of acute drug effects compared to placebo,[1],no statistical differences
same,subjective ratings of acute drug effects compared to placebo,[1]; listed as HAR,no significant difference
same,"effect size, intensity ratings, contrast vs PLA",[1]; at 90 minutes (max. intensity ratings),0.133
same,"effect size, intensity ratings, contrast vs PLA",[1]; at 240 minutes,0.127
same,"peak effects of arousal, VAS",[1]; mean (SD),9.9 % of the maximal possible scor
same,"peak effects of disliking, VAS",[1]; mean (SD),7.8 % of the maximal possible scor
same,"peak effects of liking, VAS",[1]; mean (SD),20.0 % of the maximal possible scor
same,"peak intensity, VAS",[1]; mean (SD),7.6 % of the maximal possible scor
same,"Breathing difficulty, mean intensity [0–100] (SD)",[2]; [3],18 (25)
same,"Breathing difficulty, number of participants reporting",[2]; [3],3
same,"Chest pain, mean intensity [0–100] (SD)",[2]; [3],24 (32)
same,"Chest pain, number of participants reporting",[2]; [3],2
same,"Fainting, mean intensity [0–100] (SD)",[2]; [3],0 (0)
same,"Fainting, number of participants reporting",[2]; [3],0
same,"Head ache, mean intensity [0–100] (SD)",[2]; [3],3 (0)
same,"Head ache, number of participants reporting",[2]; [3],1
same,"Heart racing, mean intensity [0–100] (SD)",[2]; [3],28 (35)
same,"Heart racing, number of participants reporting",[2]; [3],2
same,"Muscle ache, mean intensity [0–100] (SD)",[2]; [3],9 (7)
same,"Muscle ache, number of participants reporting",[2]; [3],6
same,"Nausea, mean intensity [0–100] (SD)",[2]; [3],2 (0)
same,"Nausea, number of participants reporting",[2]; [3],1
same,"Psychological distress, mean intensity [0–100] (SD)",[2]; [3],6 (2)
same,"Psychological distress, number of participants reporting",[2]; [3],3
same,"Somatic distress, mean intensity [0–100] (SD)",[2]; [3],18 (14)
same,"Somatic distress, number of participants reporting",[2]; [3],5
same,"Stomach ache, mean intensity [0–100] (SD)",[2]; [3],2 (0)
same,"Stomach ache, number of participants reporting",[2]; [3],1
same,"Vomiting, mean intensity [0–100] (SD)",[2]; [3],0 (0)
same,"Vomiting, number of participants reporting",[2]; [3],0
same,"Breathing difficulty, mean intensity [0–100] (SD)",[2]; [4],21 (28)
same,"Breathing difficulty, number of participants reporting",[2]; [4],2
same,"Chest pain, mean intensity [0–100] (SD)",[2]; [4],13 (8)
same,"Chest pain, number of participants reporting",[2]; [4],2
same,"Fainting, mean intensity [0–100] (SD)",[2]; [4],0 (0)
same,"Fainting, number of participants reporting",[2]; [4],0
same,"Head ache, mean intensity [0–100] (SD)",[2]; [4],34 (47)
same,"Head ache, number of participants reporting",[2]; [4],2
same,"Heart racing, mean intensity [0–100] (SD)",[2]; [4],9 (0)
same,"Heart racing, number of participants reporting",[2]; [4],1
same,"Muscle ache, mean intensity [0–100] (SD)",[2]; [4],22 (0)
same,"Muscle ache, number of participants reporting",[2]; [4],2
same,"Nausea, mean intensity [0–100] (SD)",[2]; [4],11 (10)
same,"Nausea, number of participants reporting",[2]; [4],3
same,"Psychological distress, mean intensity [0–100] (SD)",[2]; [4],8 (8)
same,"Psychological distress, number of participants reporting",[2]; [4],2
same,"Somatic distress, mean intensity [0–100] (SD)",[2]; [4],9 (5)
same,"Somatic distress, number of participants reporting",[2]; [4],5
same,"Stomach ache, mean intensity [0–100] (SD)",[2]; [4],52 (0)
same,"Stomach ache, number of participants reporting",[2]; [4],1
same,"Vomiting, mean intensity [0–100] (SD)",[2]; [4],0 (0)
same,"Vomiting, number of participants reporting",[2]; [4],0
same,"Breathing difficulty, mean intensity [0–100] (SD)",[2]; [5],7 (8)
same,"Breathing difficulty, number of participants reporting",[2]; [5],3
same,"Chest pain, mean intensity [0–100] (SD)",[2]; [5],4 (3)
same,"Chest pain, number of participants reporting",[2]; [5],3
same,"Fainting, mean intensity [0–100] (SD)",[2]; [5],0 (0)
same,"Fainting, number of participants reporting",[2]; [5],0
same,"Head ache, mean intensity [0–100] (SD)",[2]; [5],11 (0)
same,"Head ache, number of participants reporting",[2]; [5],1
same,"Heart racing, mean intensity [0–100] (SD)",[2]; [5],5 (5)
same,"Heart racing, number of participants reporting",[2]; [5],3
same,"Muscle ache, mean intensity [0–100] (SD)",[2]; [5],10 (9)
same,"Muscle ache, number of participants reporting",[2]; [5],3
same,"Nausea, mean intensity [0–100] (SD)",[2]; [5],15 (0)
same,"Nausea, number of participants reporting",[2]; [5],1
same,"Psychological distress, mean intensity [0–100] (SD)",[2]; [5],4 (5)
same,"Psychological distress, number of participants reporting",[2]; [5],2
same,"Somatic distress, mean intensity [0–100] (SD)",[2]; [5],7 (5)
same,"Somatic distress, number of participants reporting",[2]; [5],7
same,"Stomach ache, mean intensity [0–100] (SD)",[2]; [5],30 (37)
same,"Stomach ache, number of participants reporting",[2]; [5],2
same,"Vomiting, mean intensity [0–100] (SD)",[2]; [5],0 (0)
same,"Vomiting, number of participants reporting",[2]; [5],0
same,"Breathing difficulty, mean intensity [0–100] (SD)",[2]; [6],0 (0)
same,"Breathing difficulty, number of participants reporting",[2]; [6],0
same,"Chest pain, mean intensity [0–100] (SD)",[2]; [6],0 (0)
same,"Chest pain, number of participants reporting",[2]; [6],0
same,"Fainting, mean intensity [0–100] (SD)",[2]; [6],0 (0)
same,"Fainting, number of participants reporting",[2]; [6],0
same,"Head ache, mean intensity [0–100] (SD)",[2]; [6],72 (0)
same,"Head ache, number of participants reporting",[2]; [6],1
